Experimental findings from PMC9995496, “A screen for MeCP2-TBL1 interaction inhibitors using a luminescence-based assay” (Scientific Reports, 2023) are described below.

Structures are written as SMILES.

The target of one assay is T1, MeCP2-TBL1 interaction (MeCP2-SmBiT / TBL1-LgBiT) (Mus musculus, UniProt Q9QXE7).
T1 construct: expressed in transfected cells; crude lysate used as a cell-free assay
T1 sequence (Q9QXE7 166-527): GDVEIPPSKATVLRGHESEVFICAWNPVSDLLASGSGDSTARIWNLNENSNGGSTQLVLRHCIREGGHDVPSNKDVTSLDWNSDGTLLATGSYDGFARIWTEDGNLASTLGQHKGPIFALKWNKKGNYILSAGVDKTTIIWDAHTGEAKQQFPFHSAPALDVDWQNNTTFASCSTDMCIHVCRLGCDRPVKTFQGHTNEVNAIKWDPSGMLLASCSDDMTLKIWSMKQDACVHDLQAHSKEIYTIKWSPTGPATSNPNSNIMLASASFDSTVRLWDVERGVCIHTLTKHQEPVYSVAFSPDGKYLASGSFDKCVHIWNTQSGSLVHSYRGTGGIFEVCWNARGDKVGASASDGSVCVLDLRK
In words: MeCP2-TBL1 NanoLuc luciferase complementation assay (cell-free, extracts of transfected HEK293 cells).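 Note: each compound tested at 20 µM final concentration.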 Format: binding, human. As to conditions: primary screen of Asinex library, single well per compound. In a few lines:
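Cell-free split NanoLuc: lysate of HEK293 cells co-expressing the MeCP2 C-terminal half-SmBiT and TBL1 WD domain-LgBiT, mixed 1:1 with furimazine. After 30 min at room temperature, luminescence was plate-median normalized.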
For the molecule `O=C(c1ccc(Cc2ccc(F)cc2)nc1)N1CCCC2(CC1)CN(c1ccccc1)C(=O)O2` (stereo not shown) [BDH_32295955], the Inhibition percent is reported as -2.84.

In the case of `O=C(c1ccc(Cc2cccc(F)c2)nc1)N1CCCC2(CC1)CN(c1ccccc1)C(=O)O2` (stereo not shown) [BDH_32296010], the Inhibition percent is reported as -0.22.

Take `CC(C)(NC(=O)Cc1ccccc1)C(=O)N1CCCC(Cc2cccc3ncccc23)C1` (stereo not shown) [BDH_32327552]: the Inhibition percent was -4.87.

Turning to `CC(C)(NC(=O)Cc1ccccc1)C(=O)N1CCCC(Cc2cccn3ccnc23)CC1` (stereo not shown) [BDH_32327598], the Inhibition percent is -2.43.

Regarding `CC(C)(NC(=O)CCc1ccccc1)C(=O)N1CCC(Cc2ccc3ncccc3c2)CC1` [BDH_32328019], the Inhibition percent is recorded as -2.64.

As for `Cc1nccn1Cc1ccccc1C(=O)N1CCCC(Cc2cccc3ccncc23)CC1` (stereo not shown) [BDH_32339307], the Inhibition percent was -0.56.

For `C[C@]12C[C@@H](Cc3ccccc3)N(C(=O)c3cccc(Cn4ccnc4)c3)[C@H]1CCCC(=O)N2` [BDH_32339936], the Inhibition percent is listed as 5.72.

Take `O=C(N1CCC(Cc2ccc3ncccc3c2)CC1)C1(c2ccccc2)CCOCC1` [BDH_32341682]: the Inhibition percent is recorded as 1.41.

`O=C(N1CCC(Cc2cccc3cccnc23)CC1)C1(c2ccccc2)CCOCC1` [BDH_32341683]: the Inhibition percent came out at 6.68.

In the case of `COc1ccc(C(=O)N2CCCC(Cc3ccccn3)C2)cc1NCc1cccnc1` (stereo not shown) [BDH_32341951], the Inhibition percent is -2.98.

In the case of `Cc1ccc(C2(C(=O)N3CCC4(CC3)CC(Oc3ccccc3)CO4)CCOCC2)cc1` (stereo not shown) [BDH_32343765], the Inhibition percent came to 1.12.

Turning to `CN(C)c1cncc(C2CCCN2C(=O)c2ccccc2OCCN2CCOCC2)n1` (stereo not shown) [BDH_32345043], the Inhibition percent is 1.00.

Regarding `CN1CCN(c2cc(C(=O)N3CCCCC3CCNC(=O)c3ccccc3)ccn2)CC1` (stereo not shown) [BDH_32345153], the Inhibition percent is -1.36.

With `O=C1CCCC[C@]2(CN(Cc3ccnc(N4CCCCC4)n3)C[C@H]2c2ccccc2)N1` [BDH_32353018], the Inhibition percent is given as -0.90.

Still in this assay, the particulars now being: primary screen of the Asinex library, sheet "Sargen output Asinex library", one well per compound.
Turning to `O=C1OC2(CCN(C(=O)C3(c4ccccc4)CCCC3)C2)CN1Cc1ccc(F)cc1` (stereo not shown) [BDH_32289921], the Inhibition percent was determined as 0.62%.

On to `COc1ccccc1Cc1ccc(C(=O)N2CCCC3(CC2)CN(c2ccccc2)C(=O)O3)cn1` (stereo not shown) [BDH_32296020], for which the Inhibition percent was -0.57%.

Consider `O=C1COC2(CCCN(C(=O)c3cccc4cccnc34)CC2)CN1CCc1ccccc1` (stereo not shown) [BDH_32296359], for which the Inhibition percent was -0.70%.

Regarding `O=C(c1ccnc(Cc2cccc(F)c2)c1)N1CCC[C@]2(C[C@@H](Oc3ccc(F)cc3)CO2)C1` [BDH_32304392], the Inhibition percent came to 5.07%.

In the case of `CC(C)(NC(=O)c1ccccc1)C(=O)N1C[C@@H](c2ccc(F)cc2)[C@@]2(CCCC(=O)N2)C1` [BDH_32326628], the Inhibition percent was 0.18%.

For the molecule `CC(C)(NC(=O)c1ccccc1)C(=O)N1C2CCC1CC(Cc1ccc3ccncc3c1)C2` (stereo not shown) [BDH_32326823], the Inhibition percent was -1.86%.

On to `CN(C)c1cncc(C2CCCN2C(=O)C2(C)CCN(C(=O)c3cccc(F)c3)CC2)n1` (stereo not shown) [BDH_32329258], for which the Inhibition percent is given as -1.39%.

Turning to `Cc1cccc(Oc2cncc(C3CCCN(C(=O)c4ccc(-n5cccn5)nc4)C3)n2)c1` (stereo not shown) [BDH_32330488], the Inhibition percent is on record as 5.13%.

On to `O=C1OC2(CCCN(C(=O)c3ccc(-n4cccn4)nc3)CC2)CN1Cc1ccccc1` (stereo not shown) [BDH_32330719], for which the Inhibition percent is -2.98%.

As to `CC(=O)NC(F)(Cc1ccccc1)C(=O)N1CCC(Cc2cccc3cccnc23)CC1` (stereo not shown) [BDH_32336432], the Inhibition percent is given as 15.90%.

On to `Cc1nccn1Cc1ccccc1C(=O)N1CCCC(Cc2cccc3cccnc23)C1` (stereo not shown) [BDH_32339247], for which the Inhibition percent is -0.91%.

Regarding `Cc1nccn1Cc1ccccc1C(=O)N1CCCC(Cc2cccc3cccnc23)CC1` (stereo not shown) [BDH_32339298], the Inhibition percent was 3.41%.

As for `O=C(c1cccc(Cn2ccnc2)c1)N1CCCC(c2nccnc2Oc2ccccc2)C1` (stereo not shown) [BDH_32339912], the Inhibition percent is -0.06%.

In the case of `Cc1cccc(Oc2cncc(C3CCCN(C(=O)c4cccc(-n5cnnc5)c4)C3)n2)c1` (stereo not shown) [BDH_32340252], the Inhibition percent was -3.70%.

Turning to `O=C(c1cccc(-n2cnnc2)c1)N1CCOCC(Cc2cccc3occc23)C1` (stereo not shown) [BDH_32340409], the Inhibition percent is listed as -8.70%.

`O=C(c1ccccc1Cn1cccn1)N1CCCC1c1cncc(Cc2cccc(F)c2)n1` (stereo not shown) [BDH_32340865]: the Inhibition percent is listed as 0.32%.

As to `O=C(c1ccccc1CN1CCOCC1)N1CCCC(Cc2cnc3ccccc3c2)CC1` (stereo not shown) [BDH_32342370], the Inhibition percent is recorded as -1.09%.

Regarding `O=C(c1ccccc1CN1CCCC1)N1CCC2(CC1)COC(Cc1cccc(F)c1)C2` (stereo not shown) [BDH_32342523], the Inhibition percent was determined as 5.16%.

With `COc1ccc(C2(C(=O)N3CCC(Cc4ccc5ncccc5c4)CC3)CCOCC2)cc1` [BDH_32344075], the Inhibition percent was -2.33%.

For the molecule `COc1ccc(C2(C(=O)N3CCC(Cc4cccc5cccnc45)CC3)CCOCC2)cc1` [BDH_32344076], the Inhibition percent was determined as 3.92%.

Take `c1ccc(COc2cccc(CN3CCOCC(Cc4ccc5nccn5n4)C3)c2)nc1` (stereo not shown) [BDH_32351403]: the Inhibition percent is given as -0.41%.

In the case of `O=C1CCCC[C@]2(CN(Cc3ccnc(N4CCOCC4)n3)C[C@H]2c2cccc(F)c2)N1` [BDH_32352634], the Inhibition percent is -4.25%.

Consider `O=C(c1ccccc1OCCN1CCOCC1)N1CCCC(Cc2ccnc3ccccc23)CC1` (stereo not shown) [BDH_32353619], for which the Inhibition percent is recorded as -1.00%.

For `O=C(c1ccccc1CN1CCCC1)N1CCCC(c2cccc(Cc3ccccc3F)n2)C1` (stereo not shown) [BDH_32353816], the Inhibition percent came out at 1.91%.

In the case of `CC(C)(NC(=O)c1cccc(F)c1)C(=O)N1CCC(c2cccc(Cc3ccccc3)n2)CC1` [BDH_32354126], the Inhibition percent was -0.56%.

In the case of `Cc1nonc1COc1ccccc1C(=O)N1CCCC(Cc2ccnc3ccccc23)CC1` (stereo not shown) [BDH_32354216], the Inhibition percent is -0.73%.

Turning to `Cc1nonc1COc1ccccc1C(=O)N1CCCC(Cc2cccc3cccnc23)CC1` (stereo not shown) [BDH_32354219], the Inhibition percent was 4.81%.

As for `CN1CCC(Cc2cccc(F)c2)(C(=O)N2CCCC(Cc3cccc4ncccc34)C2)CC1` (stereo not shown) [BDH_32354496], the Inhibition percent was -4.55%.

The same assay, now with this note: primary screen of the Asinex library, sheet "Sargen output Asinex library", one well per compound, Batch Ref. 1.
Take `O=C(CN1CCc2ccccc2C1)N1CCCC2(CC1)CN(c1cccc(Cl)c1)C(=O)O2` (stereo not shown) [BDH_32295686]: the Inhibition percent was 0.75%.

For `Cn1cc(CC(=O)N2C[C@@H](c3cccc(F)c3)[C@@]3(CCCCC(=O)N3)C2)c2ccccc21` [BDH_32306274], the Inhibition percent is 1.56%.

Turning to `COc1ccc(C2(C(=O)N3CCCCC3CCNC(=O)c3ccccc3)CCCC2)cc1` (stereo not shown) [BDH_32336950], the Inhibition percent was found to be 6.01%.

With `O=C(c1ccccc1Cn1ccnc1)N1CCCC(c2cncc(Oc3ccccc3)n2)C1` (stereo not shown) [BDH_32338420], the Inhibition percent turned out to be 3.75%.

On to `O=C1CCCC[C@]2(CN(Cc3ccnc(N4CCCCC4)n3)C[C@H]2c2cccc(F)c2)N1` [BDH_32353019], for which the Inhibition percent was determined as 1.21%.

With `O=C(c1ccccc1OCCN1CCOCC1)N1CCCC(Cc2cccc3cccnc23)CC1` (stereo not shown) [BDH_32353622], the Inhibition percent came to 2.11%.

For the molecule `Cc1noc(C)c1COc1cccc(C(=O)N2CCCC(Cc3cccc4cnccc34)CC2)c1` (stereo not shown) [BDH_32354458], the Inhibition percent worked out at 1.54%.
